Data as given in PubChem BioAssay AID248 (DTP/NCI, 2004).
Toxic doses and inconclusive results are not listed. Rule as the data show it: active = T/C of 150% or more; inactive = T/C below 125%.

System: L1210 leukemia ip in BDF1 mice, survival T/C
Experiment: NCI In Vivo Anticancer Drug Screen. Data for tumor model L1210 Leukemia (intraperitoneal) in B6D2F1 (BDF1) mice
Settings: endpoint: mean survival time, higher = longer survival
How it was run: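 Tumor cells were implanted, animals were treated, and survival was followed. The result divides the treated measurement by the vehicle-control measurement.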

[1] = dose: 100.0 mg/kg/injection, schedule: Q01DX009 (ip), vehicle: Klucel (hydroxypropylcellulose) (HPC)
[2] = dose: 100.0 mg/kg/injection, schedule: Q04DX002 (ip), vehicle: Klucel (hydroxypropylcellulose) (HPC)
[3] = dose: 200.0 mg/kg/injection, schedule: Q01DX009 (ip), vehicle: Klucel (hydroxypropylcellulose) (HPC)
[4] = dose: 200.0 mg/kg/injection, schedule: Q04DX002 (ip), vehicle: Klucel (hydroxypropylcellulose) (HPC)
[5] = dose: 400.0 mg/kg/injection, schedule: Q01DX009 (ip), vehicle: Klucel (hydroxypropylcellulose) (HPC)
[6] = dose: 400.0 mg/kg/injection, schedule: Q04DX002 (ip), vehicle: Klucel (hydroxypropylcellulose) (HPC)
[7] = dose: 100.0 mg/kg/injection, schedule: Q01DX001 (ip), vehicle: saline
[8] = dose: 200.0 mg/kg/injection, schedule: Q01DX001 (ip), vehicle: saline
[9] = dose: 75.0 mg/kg/injection, schedule: Q01DX001 (ip), vehicle: saline
[10] = dose: 150.0 mg/kg/injection, schedule: Q01DX001 (ip), vehicle: saline
[11] = dose: 300.0 mg/kg/injection, schedule: Q01DX001 (ip), vehicle: saline
[12] = dose: 100.0 mg/kg/injection, schedule: Q04DX002 (ip), vehicle: saline
[13] = dose: 200.0 mg/kg/injection, schedule: Q04DX002 (ip), vehicle: saline
[14] = dose: 100.0 mg/kg/injection, schedule: Q04DX003 (ip), vehicle: Klucel (hydroxypropylcellulose) (HPC)
[15] = dose: 200.0 mg/kg/injection, schedule: Q04DX003 (ip), vehicle: Klucel (hydroxypropylcellulose) (HPC)
[16] = dose: 400.0 mg/kg/injection, schedule: Q04DX003 (ip), vehicle: Klucel (hydroxypropylcellulose) (HPC)
[17] = dose: 100.0 mg/kg/injection, schedule: Q04DX003 (ip), vehicle: saline
[18] = dose: 200.0 mg/kg/injection, schedule: Q04DX003 (ip), vehicle: saline
[19] = dose: 400.0 mg/kg/injection, schedule: Q04DX003 (ip), vehicle: saline
[20] = dose: 100.0 mg/kg/injection, schedule: Q01DX001 (ip), vehicle: Klucel (hydroxypropylcellulose) (HPC)
[21] = dose: 200.0 mg/kg/injection, schedule: Q01DX001 (ip), vehicle: Klucel (hydroxypropylcellulose) (HPC)
[22] = dose: 400.0 mg/kg/injection, schedule: Q01DX001 (ip), vehicle: Klucel (hydroxypropylcellulose) (HPC)
[23] = dose: 100.0 mg/kg/injection, schedule: Q01DX001 (ip), vehicle: other
[24] = dose: 100.0 mg/kg/injection, schedule: Q04DX003 (ip), vehicle: saline with Tween-80
[25] = dose: 100.0 mg/kg/injection, schedule: Q01DX009 (ip), vehicle: saline with Tween-80
[26] = dose: 200.0 mg/kg/injection, schedule: Q01DX009 (ip), vehicle: saline with Tween-80
[27] = dose: 400.0 mg/kg/injection, schedule: Q04DX002 (ip), vehicle: saline
[28] = dose: 25.0 mg/kg/injection, schedule: Q01DX009 (ip), vehicle: saline with Tween-80
[29] = dose: 50.0 mg/kg/injection, schedule: Q01DX009 (ip), vehicle: saline with Tween-80

Measured: T/C

O=C(NCc1ccc(Cl)c(Cl)c1)Nc1ccccc1F
inactive: [1] 101 % of control | [2] 102 % of control | [3] 104 % of control | [4] 105 % of control | [5] 101 % of control | [6] 97 % of control

CCCCOC(=O)CC(C(=O)OCCCC)S(=O)(=O)O (stereo not given)
inactive: [7] 96 % of control | [8] 104 % of control | dose: 400.0 mg/kg/injection, schedule: Q01DX001 (ip), vehicle: saline 101 % of control

O=C1NC2(C=CCCC2)C(O)(c2ccccc2)C12CCCCC2 (stereo not given)
inactive: [9] 95 % of control | [10] 86 % of control | [11] 89 % of control

CCCCCCCCCCCCC(=O)N1CCCCC1
inactive: [12] 91 % of control | [13] 102 % of control

Cc1ccc(N2P(N(C)C)N(c3ccc(C)cc3)P2(=O)N(C)C)cc1 (stereo not given)
inactive: [2] 111 % of control | [4] 101 % of control | [6] 101 % of control

CCc1ccc2c(c1)N(CC(C)CN(C)C)c1ccccc1S2 (stereo not given)
inactive: dose: 1.56 mg/kg/injection, schedule: Q01DX009 (ip), vehicle: saline 115 % of control | dose: 3.12 mg/kg/injection, schedule: Q01DX009 (ip), vehicle: saline 109 % of control | dose: 6.25 mg/kg/injection, schedule: Q01DX009 (ip), vehicle: saline 106 % of control | dose: 12.5 mg/kg/injection, schedule: Q01DX009 (ip), vehicle: saline 102 % of control | dose: 12.5 mg/kg/injection, schedule: Q04DX003 (ip), vehicle: saline 113 % of control | dose: 25.0 mg/kg/injection, schedule: Q04DX003 (ip), vehicle: saline 115 % of control

CN1CC(=O)NC1=O
inactive: dose: 250.0 mg/kg/injection, schedule: Q01DX Z (ip), vehicle: saline 94 % of control | dose: 500.0 mg/kg/injection, schedule: Q01DX Z (ip), vehicle: saline 97 % of control | dose: 1000.0 mg/kg/injection, schedule: Q01DX Z (ip), vehicle: saline 96 % of control

CCCCCCC#CC(=O)OCC
inactive: [12] 89 % of control | [13] 104 % of control

O=C1c2cccc([N+](=O)[O-])c2C(=O)N1CCl
inactive: dose: 100.0 mg/kg/injection, schedule: Q01DX001 (ip), vehicle: steriod suspending solution 97 % of control | dose: 200.0 mg/kg/injection, schedule: Q01DX001 (ip), vehicle: steriod suspending solution 105 % of control

Cc1ccc(-n2c(=S)[nH]c3ccccc3c2=O)cc1C
inactive: [1] 90 % of control | [14] 96 % of control | [3] 90 % of control | [15] 93 % of control | [5] 92 % of control | [16] 93 % of control

CCOP(=O)(OCC)C(O)c1cnc(SC)nc1N (stereo not given)
inactive: dose: 100.0 mg/kg/injection, schedule: Q01DX009 (ip), vehicle: saline 104 % of control | [17] 102 % of control | dose: 200.0 mg/kg/injection, schedule: Q01DX009 (ip), vehicle: saline 100 % of control | [18] 100 % of control | dose: 400.0 mg/kg/injection, schedule: Q01DX009 (ip), vehicle: saline 105 % of control | [19] 98 % of control

CN(C)C(=S)SCC(N)=O
inactive: [20] 103 % of control | [21] 100 % of control | [22] 103 % of control

CC(=O)N=C1CCCC1C#N (stereo not given)
inactive: [1] 101 % of control | [17] 105 % of control | [3] 101 % of control | [18] 109 % of control | [5] 95 % of control | [19] 100 % of control

CCCCCCCCCCSS(=O)(=O)O
inactive: [23] 98 % of control | dose: 400.0 mg/kg/injection, schedule: Q01DX001 (ip), vehicle: other 86 % of control

O=C(C[n+]1ccccc1Br)c1cccc([N+](=O)[O-])c1
inactive: dose: 75.0 mg/kg/injection, schedule: Q01DX001 (ip), vehicle: other 100 % of control | dose: 150.0 mg/kg/injection, schedule: Q01DX001 (ip), vehicle: other 108 % of control

CSC(=S)N/N=C(\C)c1ccccn1
inactive: [24] 107 % of control

COc1ccc(OC)c(NC(=S)N/N=C/c2cccc3ccccc23)c1
inactive: [25] 100 % of control | [26] 95 % of control | dose: 400.0 mg/kg/injection, schedule: Q01DX009 (ip), vehicle: saline with Tween-80 100 % of control

CC(C)(C=O)C(=O)Nc1ccccc1
inactive: [12] 103 % of control | [13] 106 % of control | [27] 103 % of control

C=C(Br)CSC#N
inactive: dose: 12.5 mg/kg/injection, schedule: Q01DX009 (ip), vehicle: saline with Tween-80 93 % of control | [28] 102 % of control | [29] 89 % of control

Cc1cccc(SC(=O)Nc2cc([N+](=O)[O-])ccc2C)c1
inactive: [14] 92 % of control | [15] 98 % of control | [16] 97 % of control

CC1C(c2ccccc2)OCCN1C (stereo not given)
inactive: dose: 50.0 mg/kg/injection, schedule: Q04DX003 (ip), vehicle: saline 108 % of control | [7] 93 % of control | [17] 108 % of control | [8] 104 % of control | [18] 104 % of control

CCN(CC)CCOC(=O)N1c2ccccc2Sc2ccccc21
inactive: [28] 100 % of control | dose: 50.0 mg/kg/injection, schedule: Q01DX009 (ip), vehicle: Klucel (hydroxypropylcellulose) (HPC) 102 % of control | [29] 103 % of control | [1] 102 % of control | [25] 103 % of control | [14] 98 % of control | [24] 93 % of control | [15] 93 % of control

COc1ccc(C(=O)NC(=O)C(C(=O)c2ccc(OC)cc2)c2ccccc2)cc1 (stereo not given)
inactive: [23] 86 % of control

COc1ccc(Nc2ccc(OC)cc2C(=O)O)cc1
inactive: [9] 102 % of control | dose: 75.0 mg/kg/injection, schedule: Q01DX009 (ip), vehicle: saline 89 % of control | [10] 102 % of control | dose: 150.0 mg/kg/injection, schedule: Q01DX009 (ip), vehicle: saline 104 % of control | [11] 104 % of control | dose: 300.0 mg/kg/injection, schedule: Q01DX009 (ip), vehicle: saline 101 % of control

COc1ccc(S(=O)(=O)NCCC#N)cc1NC(C)=O
inactive: [20] 95 % of control | dose: 100.0 mg/kg/injection, schedule: Q01DX009 (ip), vehicle: saline sonified 96 % of control | [21] 97 % of control | dose: 200.0 mg/kg/injection, schedule: Q01DX009 (ip), vehicle: saline sonified 96 % of control | [22] 97 % of control | dose: 400.0 mg/kg/injection, schedule: Q01DX009 (ip), vehicle: saline sonified 107 % of control

COC1CC2C=CC1C2 (stereo not given)
inactive: [29] 92 % of control | [25] 89 % of control | [26] 92 % of control

O=C(CC1OCCO1)c1ccccc1
inactive: dose: 50.0 mg/kg/injection, schedule: Q04DX002 (ip), vehicle: saline 95 % of control | [12] 89 % of control | [13] 95 % of control | [27] 95 % of control

O=C1c2cc([N+](=O)[O-])ccc2-c2cc(Cl)c([N+](=O)[O-])cc21
inactive: dose: 50.0 mg/kg/injection, schedule: Q01DX001 (ip), vehicle: carboxymethylcellulose (CMC) 102 % of control | dose: 100.0 mg/kg/injection, schedule: Q01DX001 (ip), vehicle: carboxymethylcellulose (CMC) 91 % of control | dose: 200.0 mg/kg/injection, schedule: Q01DX001 (ip), vehicle: carboxymethylcellulose (CMC) 91 % of control | dose: 400.0 mg/kg/injection, schedule: Q01DX001 (ip), vehicle: carboxymethylcellulose (CMC) 93 % of control
